Assay results as given in patent US20260144257A1, “VITAMIN B3 BASED PRESERVATIVE COMPOSITIONS” (SHARON PERSONAL CARE LTD., priority 2022, published 2026).

Test system: tested bacteria and fungi (E. coli, S. aureus, P. aeruginosa, C. albicans, A. brasiliensis)
Assay: Challenge test of preservative efficacy in formulations (ISO 11930)
Type: cell-based
From the text: Escherichia coli (ATCC 8739), Staphylococcus aureus (ATCC 6538), P. aeruginosa (ATCC 9027), Candida albicans (ATCC 10231), and Aspergillus brasiliensis (ATCC 16404) were obtained from ATCC and cultured according to the manufacturer's instructions. These microorganisms are routinely used for minimum inhibitory concentration (MIC), checkerboards and challenge tests according to the US and EU recommendations for the efficacy of preservatives in the cosmetic industry. Bacterial strains were maintained in tryptic soy agar (TSA) (Hy-labs, Rehovot, Israel), while yeast and mold strains were maintained in sabouraud dextrose agar (SDA) (Hy-labs, Israel), supplemented with oxytetracycline at a concentration of 1% (Hy-labs, Israel). Preservative efficacy assays (challenge tests) were performed in order to enumerate the number of microorganisms present in a formulation containing the preservative system, while the diluent solution was supplemented with neutralizers containing 4% Tween 20 and 0.5% lecithin (Hy-labs, Israel). Challenge tests of preservative efficacy in formulations were performed according to the ISO 11930 regulations. The total count for any prior contamination was performed for all formulations. Specifically, in order to evaluate the antimicrobial and antifungal activity of the preservative system, samples were inoculated separately with each microorganism at a final concentration of 10^6 cfu/mL for bacteria and 10^5 cfu/mL for yeast and mold. Samples were incubated in the dark at 22° C. for 28 days. […] To enumerate the microorganisms at each time point, serial dilutions were made up to 10-4, and 1 mL were seeded in duplicates onto a petri dish with the appropriate media TSA/SDA (bacteria vs. yeast and mold, respectively), using the pour plate method. Plates were incubated at 32° C. for three days for bacteria while yeast and mold were incubated at 22° C. for five days until the enumeration of viable microorganisms. [table]

Compound: CCCCCCC(O)CO (stereo not drawn) [CG, Caprylyl Glycol]
- preservative activity (sole application (without niacinamide)): didn't show any markable preservative activity

Compound: NC(=O)c1cccnc1 [niacinamide]
- antimicrobial activity of the single agent (alone at the above concentrations (about 2.8% niacinamide or about 0.2% cationic surfactant)): only limited antimicrobial activity

Compound: polylysine
- preservative activity (standalone treatment, 0.1%, non-ionic cream): didn't show any markable preservative activity
